Results taken from patent US12509451B2, “Heteroaryl amide inhibitors of CD38” (NAPA THERAPEUTICS LTD., priority 2020, dated 2025).

Columns and labels:
[1] = molecular target: T1, recombinant human CD38 Protein (Homo sapiens, UniProt P28907); assay: Fluorescence-based NAD+ hydrolase activity assay with human recombinant CD38 protein (Assay 3); format: biochemical; details: read-out: Assay 3 Arithmetic mean IC50
T1 construct: purchased R&D System
T1 sequence (P28907 1-300): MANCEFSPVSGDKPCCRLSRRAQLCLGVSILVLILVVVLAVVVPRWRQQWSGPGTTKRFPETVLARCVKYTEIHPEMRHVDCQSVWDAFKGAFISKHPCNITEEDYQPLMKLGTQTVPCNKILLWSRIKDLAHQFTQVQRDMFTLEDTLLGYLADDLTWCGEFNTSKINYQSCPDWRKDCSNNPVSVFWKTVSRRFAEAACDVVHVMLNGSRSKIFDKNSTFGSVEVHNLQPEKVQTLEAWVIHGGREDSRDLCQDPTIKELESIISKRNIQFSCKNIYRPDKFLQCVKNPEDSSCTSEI
Method: This protocol was modified from the following references (Muller et al. (1983); (Schultz et al. (2018); (Matalonga et al. (2017); and de Oliveira et al. (2018), supra.
NAD+ hydrolase activity of the human recombinant CD38 protein treated with test compounds was measured using a fluorescence-based assay. Briefly, recombinant human CD38 Protein (R&D System) was resuspended in 44 μl/well of Sucrose-Tris Buffer (Sucrose 0.25 M, Tris pH 7.4 40 mM) and plated in a 96-well black plate (CORNING) at a density of 10 ng/well.
(§1) Each test compound was received in a powder state and dissolved in DMSO as a 25 mM stock solution. Each test compound was serially diluted in order to generate a dose-response curve. The dilution series of each test compound in DMSO was prepared at 50× the concentrations to be assayed. Each test compound was diluted to generate a 5-fold dilution series of 8 concentrations from 20 μM to 0.256 nM in order to assay 8 final concentrations ranging from ranging from 400 nM to 25.6 pM. One μl of the 50× concentration compound series was added to each well of the plate containing 10 ng protein in Sucrose-Tris buffer.
The reaction was started adding nicotinamide 1,N^6-etheno-adenine dinucleotide (Sigma Aldrich) to reach a final concentration of 80 µM. The samples were excited at 321-15 nm and the emission of fluorescence was measured at 410-20 nm at 37° C. every minute for 1 hr in a Clariostar® microplate reader (BMG LABTECH). NAD+ hydrolase activity was calculated as the slope of the linear portion of the fluorescence-time curve using the MARS data analysis software (BMG LABTECH). The data were uploaded in the Collaborative Drug Design (CDD) Software and for each compound the IC50 was calculated by the software. […] For each plate, the z-factor was also calculated as a plate quality using the CDD software.

[2] = molecular target: T2, CD38 NAD+ hydrolase activity in NH7-dCas9 cells (Jurkat clone) (Homo sapiens, UniProt P28907); assay: Fluorescence-based NAD+ hydrolase activity assay with human T cell line NH7-dCas9 cells-Jurkat clone (Assay 1); details: read-out: Assay 1 Arithmetic mean IC50
T2 construct: The assay utilized CD38 expressing NH7-dCas9 cells (Jurkat clone); host or cells: NH7-dCas9 cells (Jurkat clone)
T2 sequence (P28907 1-300): T1 sequence (P28907 1-300)
Method: For the modified assay, the performance validation criteria of the assay as a High Throughput Screening (HTS): Z-factor within the plate was greater than 0.89 (optimal HTS z-factor >0.5) and the Intra-plate, inter-plate and day to day variability (CV) was less than 20%.
NAD+ hydrolase activity of a human T cell line treated with test compounds was measured using a fluorescence-based assay. NH7-dCas9 cells (Jurkat clone) were provided by the Weissman Lab (UCSF 1700 4th St., Byers Hall, Room 403B, San Francisco, CA 94158-2330). Briefly, cells were centrifuged, resuspended in 44 μl PBS/10^6 cells and plated in a 96 well black plate (CORNING) at a density of 1×10^6 per well.
as §1, with “at 50 times” for “at 50×”, “from” for “from ranging from”, “containing 1×10^6 cells” for “containing 10 ng protein”, “in PBS.” for “in Sucrose-Tris buffer.”
Each plate had the following intra plate controls: 3 wells containing cells treated with vehicle only (DMSO), 3 wells of cells treated with the reference compound 78c at a final concentration of 50 nM and 2 wells containing only PBS (used as a background value).
The reaction was started by adding nicotinamide 1,N^6-etheno-adenine dinucleotide (Sigma Aldrich) to reach a final concentration of 80 µM. The samples were excited at 321-15 nm, and the emission of fluorescence was measured at 410-20 nm at 37° C. every minute for 1 hr in a Clariostar® microplate reader (BMG LABTECH). NAD+ hydrolase activity was calculated as the slope of the linear portion of the fluorescence-time curve using the MARS data analysis software (BMG LABTECH). The data were uploaded in the Collaborative Drug Design (CDD) Software and for each compound the IC50 was calculated by the software. Each compound was tested in 3 independent experiments on 3 separate days to establish the reproducibility of the results. For each plate, the z-factor was also calculated as a plate quality using the CDD software.

Compound: CNC(=O)c1ccc(NC(=O)c2cccc(-n3ccnc3)n2)cn1 [Compound 2]
- IC50 [1]: < 1 nM
- IC50 [2]: < 1 nM

Compound: NC(=O)c1ccc(NC(=O)c2cccc(-n3ccnc3)n2)cn1 [Compound 3]
- IC50 [1]: 1 to 50 nM
- IC50 [2]: < 1 nM

Compound: Cc1cc(NC(=O)c2cccc(-n3ccnc3)n2)cc(C)n1 [Compound 7]
- IC50 [1]: 1 to 50 nM
- IC50 [2]: < 1 nM

Compound: O=C(Nc1ccnc(F)c1)c1cccc(-n2ccnc2)n1 [Compound 8]
- IC50 [1]: 1 to 50 nM
- IC50 [2]: < 1 nM

Compound: O=C(Nc1ccc(C(F)(F)F)nc1)c1cccc(-n2ccnc2)n1 [Compound 9]
- IC50 [1]: 1 to 50 nM
- IC50 [2]: 1 to 50 nM

Compound: Cc1cc(NC(=O)c2cccc(-n3ccnc3)n2)ccn1 [Compound 11]
- IC50 [1]: 1 to 50 nM
- IC50 [2]: 1 to 50 nM

Compound: COc1cc(NC(=O)c2cccc(-n3ccnc3)n2)ccn1 [Compound 12]
- IC50 [1]: 1 to 50 nM
- IC50 [2]: 1 to 50 nM

Compound: O=C(Nc1ccncc1)c1cccc(-n2ccnc2)n1 [Compound 13]
- IC50 [1]: 1 to 50 nM
- IC50 [2]: 1 to 50 nM

Compound: Cc1ccc(NC(=O)c2cccc(-n3ccnc3)n2)cn1 [Compound 14]
- IC50 [1]: 1 to 50 nM
- IC50 [2]: 1 to 50 nM

Compound: CC(=O)N(C)c1ccc(NC(=O)c2cccc(-n3ccnc3)n2)cn1 [Compound 15]
- IC50 [1]: 1 to 50 nM
- IC50 [2]: 1 to 50 nM

Compound: CC(=O)Nc1ccc(NC(=O)c2cccc(-n3ccnc3)n2)cn1 [Compound 16]
- IC50 [1]: 1 to 50 nM
- IC50 [2]: 1 to 50 nM

Compound: COc1ccc(NC(=O)c2cccc(-n3ccnc3)n2)cn1 [Compound 18]
- IC50 [1]: 1 to 50 nM
- IC50 [2]: 1 to 50 nM

Compound: O=C(Nc1cccnc1)c1cccc(-n2ccnc2)n1 [Compound 20]
- IC50 [1]: 1 to 50 nM
- IC50 [2]: 1 to 50 nM

Compound: O=C(Nc1ccc(F)nc1)c1cccc(-n2ccnc2)n1 [Compound 22]
- IC50 [1]: 1 to 50 nM
- IC50 [2]: 1 to 50 nM

Compound: O=C(Nc1ccncn1)c1cccc(-n2ccnc2)n1 [Compound 24]
- IC50 [1]: 1 to 50 nM
- IC50 [2]: 1 to 50 nM

Compound: COC(=O)c1ccc(NC(=O)c2cccc(-n3ccnc3)n2)cn1 [Compound 27]
- IC50 [1]: 1 to 50 nM
- IC50 [2]: 1 to 50 nM

Compound: O=C(Nc1ccnc(C(F)(F)F)c1)c1cccc(-n2ccnc2)n1 [Compound 28]
- IC50 [1]: 1 to 50 nM
- IC50 [2]: < 1 nM

Compound: O=C(Nc1ccnc(C(F)(F)F)c1)c1cc(OCc2ccccc2)cc(-n2ccnc2)n1 [Compound 29, 4-(benzyloxy)-6-(1H-imidazol-1-yl)-N-[2-(trifluoromethyl)pyridin-4-yl]pyridine-2-carboxamide]
- IC50 [1]: 1 to 50 nM
- IC50 [2]: < 1 nM

Compound: O=C(Nc1ccnc(C(F)(F)F)c1)c1cc(OCC2CCOCC2)cc(-n2ccnc2)n1 [Compound 30, 6-(1H-imidazol-1-yl)-4-((tetrahydro-2H-pyran-4-yl)methoxy)-N-(2-(trifluoromethyl)pyridin-4-yl)picolinamide]
- IC50 [1]: 1 to 50 nM
- IC50 [2]: < 1 nM

Compound: COCCOc1cc(C(=O)Nc2ccnc(C(F)(F)F)c2)nc(-n2ccnc2)c1 [Compound 31, 6-(1H-imidazol-1-yl)-4-(2-methoxyethoxy)-N-(2-(trifluoromethyl)pyridin-4-yl)picolinamide]
- IC50 [1]: 1 to 50 nM
- IC50 [2]: < 1 nM

Compound: O=C(Nc1ccnc(C(F)(F)F)c1)c1cc(OC2CC2)cc(-n2ccnc2)n1 [Compound 32, 4-cyclopropoxy-6-(1H-imidazol-1-yl)-N-(2-(trifluoromethyl)pyridin-4-yl)picolinamide]
- IC50 [1]: < 1 nM
- IC50 [2]: < 1 nM

Compound: CN(C)CCOc1cc(C(=O)Nc2ccnc(C(F)(F)F)c2)nc(-n2ccnc2)c1 [Compound 33]
- IC50 [1]: < 1 nM
- IC50 [2]: < 1 nM

Compound: CC1(Oc2cc(C(=O)Nc3ccnc(C(F)(F)F)c3)nc(-n3ccnc3)c2)COC1 [Compound 34, 6-(1H-imidazol-1-yl)-4-((3-methyloxetan-3-yl)oxy)-N-(2-(trifluoromethyl)pyridin-4-yl)picolinamide]
- IC50 [1]: 1 to 50 nM

Compound: COc1cc(C(=O)Nc2ccnc(C(F)(F)F)c2)nc(-n2ccnc2)c1 [Compound 35, 6-(1H-imidazol-1-yl)-4-methoxy-N-(2-(trifluoromethyl)pyridin-4-yl)picolinamide]
- IC50 [1]: 1 to 50 nM
- IC50 [2]: < 1 nM

Compound: COc1cc(C(=O)Nc2cccnc2)nc(-n2ccnc2)c1 [Compound 36]
- IC50 [1]: 1 to 50 nM
- IC50 [2]: 1 to 50 nM

Compound: COc1cc(C(=O)Nc2ccnc(C(F)(F)F)c2)nc(-n2ccnc2)n1 [Compound 37, 2-(1H-imidazol-1-yl)-6-methoxy-N-(2-(trifluoromethyl)pyridin-4-yl)pyrimidine-4-carboxamide]
- IC50 [1]: < 1 nM
- IC50 [2]: < 1 nM

Compound: CCOc1cc(C(=O)Nc2ccnc(C(F)(F)F)c2)nc(-n2ccnc2)n1 [Compound 38]
- IC50 [1]: < 1 nM
- IC50 [2]: < 1 nM

Compound: COCCOc1cc(C(=O)Nc2ccnc(C(F)(F)F)c2)nc(-n2ccnc2)n1 [Compound 39, 2-(1H-imidazol-1-yl)-6-(2-methoxyethoxy)-N-(2-(trifluoromethyl)pyridin-4-yl)pyrimidine-4-carboxamide]
- IC50 [1]: < 1 nM
- IC50 [2]: < 1 nM

Compound: O=C(Nc1ccnc(C(F)(F)F)c1)c1cc(OC2CC2)nc(-n2ccnc2)n1 [Compound 40]
- IC50 [1]: 1 to 50 nM

Compound: Cn1cncc1-c1cccc(C(=O)Nc2cccnc2)n1 [Compound 42, 6-(1-methyl-1H-imidazol-5-yl)-N-(pyridin-3-yl)picolinamide]
- IC50 [1]: 1 to 50 nM
- IC50 [2]: 1 to 50 nM

Compound: Cn1cncc1-c1cccc(C(=O)Nc2ccc(C(F)(F)F)nc2)n1 [Compound 43]
- IC50 [1]: 1 to 50 nM
- IC50 [2]: < 1 nM

Compound: Cc1cc(C(=O)Nc2ccncc2)nc(-c2nccn2C)c1 [Compound 45]
- IC50 [1]: 1 to 50 nM
- IC50 [2]: < 1 nM

Compound: Cn1ccnc1-c1cccc(C(=O)Nc2ccc(C(F)(F)F)nc2)n1 [Compound 47]
- IC50 [1]: 1 to 50 nM
- IC50 [2]: < 1 nM

Compound: Cn1ccnc1-c1cccc(C(=O)Nc2cccnc2)n1 [Compound 48]
- IC50 [1]: 1 to 50 nM
- IC50 [2]: 1 to 50 nM

Compound: Cc1cc(C(=O)Nc2cccnc2)nc(-n2ccnc2)n1 [Compound 49, 2-(1H-imidazol-1-yl)-6-methyl-N-(pyridin-3-yl)pyrimidine-4-carboxamide]
- IC50 [1]: < 1 nM
- IC50 [2]: < 1 nM

Compound: Cc1cc(C(=O)Nc2ccncc2)nc(-n2ccnc2)n1 [Compound 50]
- IC50 [1]: < 1 nM
- IC50 [2]: < 1 nM

Compound: O=C(Nc1ccnc(C(F)(F)F)c1)c1cc(C2CC2)nc(-n2ccnc2)n1 [Compound 51, 6-cyclopropyl-2-(1H-imidazol-1-yl)-N-(2-(trifluoromethyl)pyridin-4-yl)pyrimidine-4-carboxamide]
- IC50 [1]: < 1 nM

Compound: Cc1cc(C(=O)Nc2ccncc2)nc(-n2ccnc2)c1 [Compound 52, 6-(1H-imidazol-1-yl)-4-methyl-N-(pyridin-4-yl)picolinamide]
- IC50 [1]: 1 to 50 nM
- IC50 [2]: < 1 nM

Compound: Cc1cc(C(=O)Nc2cccnc2)nc(-n2ccnc2)c1 [Compound 53]
- IC50 [1]: 1 to 50 nM
- IC50 [2]: < 1 nM
